Our source for the LD50, inhibition in vivo and ED30 values is ChEMBL document CHEMBL3244392, “Synthesis and antiinflammatory activity of some 2-aryl-6-benzoxazoleacetic acid derivatives” (J Med Chem, 1977).

Series [1] can be described thus: Toxicity in po dosed rat. Format: organism-based. The settings on record: in vivo.
Series [2] deals with Rattus norvegicus. Briefly: Antiinflammatory activity in rat assessed as inhibition of carrageenan-induced paw edema at 25 mg/kg, po administered as two doses 3 and 0.5 hr prior to challenge measured 2.5 hrs post challenge. Format: functional.
Series [3] relates to Rattus norvegicus. Briefly: Antiinflammatory activity in adrenalectomized rat assessed as inhibition of carrageenan-induced paw edema at 25 mg/kg, po administered as two doses 3 and 0.5 hr prior to challenge measured 2.5 hrs post challenge. The class given is functional. A general note: The carrageenan paw model is a standard test of acute inflammation.
Series [4] relates to Rattus norvegicus. Nature of the series: Antiinflammatory activity in rat assessed as inhibition of carrageenan-induced paw edema at 100 mg/kg, po administered as two doses 3 and 0.5 hr prior to challenge measured 2.5 hrs post challenge. Format: functional.
The test system of series [5] is Rattus norvegicus. Briefly: Antiinflammatory activity in adrenalectomized rat assessed as inhibition of carrageenan-induced paw edema at 100 mg/kg, po administered as two doses 3 and 0.5 hr prior to challenge measured 2.5 hrs post challenge. The class given is functional.
The test system of series [6] is Rattus norvegicus. Briefly: Antiinflammatory activity in rat assessed as inhibition of carrageenan-induced paw edema at 50 mg/kg, po administered as two doses 3 and 0.5 hr prior to challenge measured 2.5 hrs post challenge. Format: functional.
The test system of series [7] is Rattus norvegicus. Nature of the series: Antiinflammatory activity in adrenalectomized rat assessed as inhibition of carrageenan-induced paw edema administered orally 1 hr prior to challenge measured 5 hrs post challenge. The class given is functional. The settings on record: po.
The subject of series [8] is Rattus norvegicus. Briefly: Antiinflammatory activity in adrenalectomized rat assessed as inhibition of carrageenan-induced paw edema administered orally 1 hr prior to challenge measured 2.5 hrs post challenge. The settings on record: po. Format: functional.
The subject of series [9] is Rattus norvegicus. Briefly: Antiinflammatory activity in adrenalectomized rat assessed as inhibition of carrageenan-induced paw edema at 50 mg/kg, po administered as two doses 3 and 0.5 hr prior to challenge measured 2.5 hrs post challenge. Format: functional.

As for `CC(CN)c1ccc2nc(-c3ccccc3)oc2c1.O=C(O)CCC(=O)O` (stereo not drawn), the LD50 in [1] was found to be 300 mg/kg. The inhibition in vivo at 25 mg/kg in the series with Rattus norvegicus [2] worked out at 0%.
`Cl.NCCc1ccc2nc(-c3ccccc3)oc2c1` returned an LD50 in series [1] of 300 mg/kg. The results for the inhibition in vivo at 25 mg/kg with Rattus norvegicus [2] and in the series with Rattus norvegicus [3] were 59% and 0%, respectively.
For the compound `O=C(O)Cc1ccc2nc(-c3ccccc3)oc2c1`, the inhibition in vivo at 100 mg/kg in the series with Rattus norvegicus [4] came to 60%; with Rattus norvegicus [5], 50%. Besides, the LD50 in [1] was determined as 1200 mg/kg.
As to `CC(C(=O)O)c1ccc2nc(-c3ccccc3)oc2c1` (stereo not drawn), the inhibition in vivo at 50 mg/kg in the series with Rattus norvegicus [6] was determined as 60%. For the same compound, the LD50 in series [1] was 600 mg/kg.
For the compound `Cc1ccc2nc(-c3ccccc3)oc2c1`, the inhibition in vivo at 50 mg/kg in the series with Rattus norvegicus [6] was 10%. In [1], this compound had an LD50 below 1600 mg/kg.
The compound `CC(C(=O)O)c1ccc2nc(-c3ccc(Cl)cc3Cl)oc2c1` (stereo not drawn) displayed a 50% lethal dose (LD50) in [1] of 300 mg/kg. Besides, the inhibition in vivo at 25 mg/kg in the series with Rattus norvegicus [2] was determined as 49%; in the series on Rattus norvegicus [3], 56%.
Turning to `CCOC(=O)Cc1ccc2nc(-c3ccccc3)oc2c1`, in the series with Rattus norvegicus [4], the inhibition in vivo at 100 mg/kg was found to be 61%. Also, in series [1], the LD50 turned out to be 1200 mg/kg.
As to `CC(CO)c1ccc2nc(-c3ccccc3)oc2c1` (stereo not drawn), the inhibition in vivo at 100 mg/kg in the series on Rattus norvegicus [4] was 61%. For the same compound, the LD50 in series [1] was 800 mg/kg.
For `CC(C(=O)O)c1ccc2oc(-c3ccc(Cl)cc3)nc2c1` (stereo not drawn) [BENOXAPROFEN], in the series with Rattus norvegicus [6], the inhibition in vivo at 50 mg/kg is 78%. Moreover, in series [1], the LD50 amounted to 800 mg/kg. Further, the values for the ED30 with Rattus norvegicus [7] and in the series on Rattus norvegicus [8] were 10.6 mg/kg and 13.4 mg/kg, respectively.
For the compound `CC(C(=O)O)c1ccc2nc(-c3ccccc3Cl)oc2c1` (stereo not drawn), the results for the inhibition in vivo at 50 mg/kg with Rattus norvegicus [6] and in the series on Rattus norvegicus [9] were 41% and 58%, respectively. In series [1], this compound registered an LD50 of 1200 mg/kg. The results for the ED30 with Rattus norvegicus [7] and in the series on Rattus norvegicus [8] were 23 mg/kg and 1.98 mg/kg, respectively.
Regarding `OCCc1ccc2nc(-c3ccccc3)oc2c1`, the inhibition in vivo at 100 mg/kg in the series with Rattus norvegicus [4] was found to be 47%. Besides, in series [1], the LD50 was above 1600 mg/kg.
With `CCCCC1C(=O)N(c2ccccc2)N(c2ccccc2)C1=O` [PHENYLBUTAZONE], the inhibition in vivo at 50 mg/kg in the series on Rattus norvegicus [6] amounted to 39%. Moreover, the inhibition in vivo at 100 mg/kg in the series with Rattus norvegicus [5] is 60%. Moreover, the results for the ED30 with Rattus norvegicus [7] and with Rattus norvegicus [8] were 52.6 mg/kg and 23.8 mg/kg, respectively.
As to `Cc1ccc(-c2nc3ccc(C(C)C(=O)O)cc3o2)cc1` (stereo not drawn), the inhibition in vivo at 50 mg/kg in the series with Rattus norvegicus [6] is 43%. In addition, in series [1], the LD50 came to 1200 mg/kg.
Turning to `CC(C(=O)O)c1ccc2nc(-c3ccc(Cl)cc3)oc2c1` (stereo not drawn), the inhibition in vivo at 50 mg/kg in the series with Rattus norvegicus [6] stood at 28%. In addition, the LD50 in series [1] came out at 1200 mg/kg. The figures for the ED30 in the series with Rattus norvegicus [7] and in the series on Rattus norvegicus [8] were 11 mg/kg and 2.4 mg/kg, respectively.
As to `CC(C(=O)O)c1ccc2nc(-c3ccc(F)cc3)oc2c1` (stereo not drawn), the inhibition in vivo at 50 mg/kg with Rattus norvegicus [6] is 48%. The compound also registered an LD50 in series [1] of 1200 mg/kg.
On to `C[C@]12CCC(=O)C=C1CC[C@@H]1[C@@H]2[C@@H](O)C[C@@]2(C)[C@H]1CC[C@]2(O)C(=O)CO` [HYDROCORTISONE], for which, in the series on Rattus norvegicus [6], the inhibition in vivo at 50 mg/kg was 42%.

For orientation: LD50 means the dose at which mortality reaches 50%. Low readings indicate greater toxicity, high ones lower toxicity. The term inhibition in vivo denotes the change of the read-out against control, counted positive when it falls.
